Patent US10913727B2, “Modulators of the integrated stress pathway” (Calico Life Sciences LLC, priority 2016, dated 2021)

Tested on: HEK293T cells carrying the ATF4 luciferase reporter
Assay: ATF4-Luc assay, in vitro model of Vanishing Cell White Matter Disease (VWMD)
Format: cell-based
Conditions: Homo sapiens, HEK-293T, 1 μg/mL tunicamycin, 7 hours, One Glo luminescence
Outline: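 Reporter cells were stably generated by retroviral transduction and puromycin selection, then seeded at 30,000 cells/well. Next day, cells received 1 μg/mL tunicamycin with 200 nM test compound for 7 h, and luciferase luminescence was read with a one-step reagent. Values reported as EC50.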

Compound: COc1ccccc1-c1cc(C(=O)NC23CCC(NC(=O)COc4ccc(Cl)c(F)c4)(CC2)C(O)C3)on1 (centres unmarked) [Compound 397, N-{4-[2-(4-chloro-3-fluorophenoxy)acetamido]-3-hydroxybicyclo[2.2.2]octan-1-yl}-3-(2-methoxyphenyl)-1,2-oxazole-5-carboxamide]
- EC50: 50 to 250 nM

Compound: N#CCc1ccccc1C(=O)NC12CC(NC(=O)COc3ccc(Cl)c(F)c3)(C1)C2 [Compound 206, N-{3-[2-(4-chloro-3-fluorophenoxy)acetamido]bicyclo[1.1.1]pentan-1-yl}-2-(cyanomethyl)benzamide]
- EC50: 250 to 1000 nM

Compound: O=C(COc1ccc(Cl)c(Cl)c1)NC12CC(NC(=O)c3cnoc3)(C1)C2 [Compound 921, N-{3-[2-(3,4-dichlorophenoxy)acetamido]bicyclo[1.1.1]pentan-1-yl}-1,2-oxazole-4-carboxamide]
- EC50: 1000 to 2000 nM

Compound: CN1CCc2c(cccc2NC23CC(NC(=O)COc4ccc(Cl)c(F)c4)(C2)C3)C1 [Compound 491, 2-(4-chloro-3-fluorophenoxy)-N-{3-[(2-methyl-1,2,3,4-tetrahydroisoquinolin-5-yl)amino]bicyclo[1.1.1]pentan-1-yl}acetamide]
- EC50: > 2000 nM

Compound: O=C(COc1ccc(Cl)c(F)c1)NC12CC(NC(=O)c3cc(CO)ccn3)(C1)C2 [Compound 178, N-{3-[2-(4-chloro-3-fluorophenoxy)acetamido]bicyclo[1.1.1]pentan-1-yl}-4-(hydroxymethyl)pyridine-2-carboxamide]
- EC50: 50 to 250 nM
